First: CCCn1c(=O)[nH]c2ccc(C(=O)c3nc(-c4cccc(C(=O)O)c4)c4ccccn34)cc2c1=O
Second: CCCCc1nc2cc(-c3ccccc3)cc(C(=O)O)c2n1Cc1ccccc1Cl
The melting point of the first is higher: 365 °C for the first, 236 to 238 °C for the second.

Compared with CC(C)(CC(=O)c1ccc2c(c1)CC(N1C(=O)c3ccccc3C1=O)C2)C(=O)O (configuration not stated), O=C1CCC(N2C(=O)c3cccc(CNC(=O)c4ccc(F)c(C(F)(F)F)c4)c3C2=O)C(=O)N1 (configuration not stated) is lower in melting point: 238 to 240 °C for the first, 171 to 173 °C for the second.

First: COc1ccc2c(c1OC)CC[C@@H]1NC(=O)CC[C@H]21 (relative stereo)
Second: COc1cccc2c1C13CCN(C)C(C2)C1(O)CCC(=O)C3 (configuration not stated)
The melting point of the first is higher: 243 to 245 °C for the first, 191 to 193 °C for the second.

First: OC[C@@H](OCc1ccccc1)[C@@H](O)[C@H](O)[C@@H](CO)OCc1ccccc1
Second: O=C(O)C1(CP(=O)(OCc2ccccc2)OCc2ccccc2)CCCC1
The melting point of the first is higher: 116 to 117 °C for the first, 89 to 92 °C for the second.

First: O=C(NC(=O)c1cc(F)c(Cl)nc1Cl)NC1CC1
Second: COc1cc(C(C)=O)c(F)cc1Cl
The melting point of the first is higher: 171 to 173 °C for the first, 96.5 to 98.5 °C for the second.

First: Cc1ccc(S(=O)(=O)OCCCCn2c3c(c4ccccc4c2=O)C(=O)c2ccccc2-3)cc1
Second: Cc1cc(F)ccc1-c1ccc(S(=O)(=O)N2c3ccccc3CC2C(=O)NCc2ccc(CC(=O)O)cc2)cc1 (configuration not stated)
The melting point of the first is higher: 160 to 163 °C for the first, 95 to 100 °C for the second.

Compared with COc1ccccc1N1CCN(S(=O)(=O)c2ccc([N+](=O)[O-])cc2)CC1, Nc1ccccc1C(=O)OCCN1CCN(c2cccc(Cl)c2)CC1 is lower in melting point: 202 to 204 °C for the first, 76 °C for the second.

Compared with O=C1NCc2cnc(Nc3ccc(N4CCC(CCCO)CC4)cc3)nc2N1C1CCCC1, CCC(C)n1ncn(-c2ccc(N3CCN(c4ccc(O)cc4)CC3)cn2)c1=O (configuration not stated) is lower in melting point: > 230 °C for the first, 144 to 145 °C for the second.

Compared with CC=C(c1ccc(F)cc1)c1ccc(F)cc1, C#CC(C)(O)c1ccc(Oc2ccc(Cl)cc2)cc1 (configuration not stated) is higher in melting point: 43 to 44 °C for the first, 55 to 57 °C for the second.

First: O=CC1(Nc2ccccc2)CCN(CCc2ccccc2)CC1
Second: CC(c1ccc(F)cc1)n1c(NC2CCN(CCc3ccccc3)CC2)nc2ccccc21 (configuration not stated)
The melting point of the first is lower: 83 to 84 °C for the first, 162 °C for the second.

First: CCOC(=O)c1ccc(-c2cnc3c(c2)N(Cc2ccccc2OC(F)(F)F)CCN3)cc1
Second: CCN1CCN(C(=O)c2ccc(-c3cc(-c4n[nH]cc4-c4cccc(C)n4)ccn3)cc2)CC1
The melting point of the first is higher: 153 °C for the first, 126 °C for the second.

First: CC(=O)Nc1cccc(CCCCC(=O)O)c1
Second: Fc1cccc(NC(=S)c2ccccn2)c1
The melting point of the first is higher: 137 to 138 °C for the first, 72 to 76 °C for the second.

First: CN1CC(=O)N2[C@H](c3ccc(O)c(O)c3)c3[nH]c4ccccc4c3C[C@@H]2C1=O
Second: COc1ccccc1-c1c(O)c2ccc(Cl)cc2[nH]c1=O
The melting point of the first is lower: 224 to 226 °C for the first, > 300 °C for the second.

First: O=C(c1ccccc1)c1ccc(O)c(O)c1[N+](=O)[O-]
Second: N#CCc1cccc(C(=O)c2ccccc2)c1N
The melting point of the first is higher: 153 to 155 °C for the first, 138 to 139 °C for the second.

First: O=C(O)c1cc(Br)ccc1COc1ccc(Br)cc1
Second: O=C(O)c1ccc(OCC2CCCC2Nc2ccc(Cl)cc2)cc1 (configuration not stated)
The melting point of the first is higher: 214 to 215 °C for the first, 153 to 156 °C for the second.

First: CC(=O)NC(Cl)C(Cl)(Cl)CCl (configuration not stated)
Second: COC(=O)c1cc(Cl)c(-n2[nH]c(N)cc2=O)c(Cl)c1
The melting point of the first is lower: 70 to 72 °C for the first, 225 to 229 °C for the second.

First: O=c1[nH]c2ccccc2c(=O)n1C1CCCCC1
Second: CN1CCCCC(c2cccc(O)c2)C1=O (configuration not stated)
The melting point of the first is higher: 236 to 238 °C for the first, 188 to 191 °C for the second.

First: COc1cc2c(cc1OCc1ccccc1)CCN(Cc1ccccn1)C2
Second: COc1ccc2[nH]c(C)cc2c1OCc1ccccc1
The melting point of the first is lower: 73 to 74 °C for the first, 74 to 75 °C for the second.

First: CCCCCCCCCCCCCCCCCCS(=O)(=O)c1cc2ccccc2cc1O
Second: CCCCCCCCCCCCCCCCSCC(CNS(=O)(=O)CCCCl)NC(=O)OC (configuration not stated)
The melting point of the first is higher: 98 to 99 °C for the first, 67 to 69 °C for the second.

First: Oc1c(Br)cc2oc3ccccc3c2c1Br
Second: Cn1nc(N)c2c(=O)n(-c3ccccc3)c3ncccc3c21
The melting point of the first is lower: 176 to 178 °C for the first, > 300 °C for the second.

First: O=c1oc(-c2ccc(CCc3ccccc3)cc2)cc(O)c1SCCc1ccccc1
Second: O=C1C(c2ccccc2)=C(c2ccccc2)C(=O)N1c1ccc(Cl)cc1
The melting point of the first is lower: 122 to 123 °C for the first, 198 to 199 °C for the second.

Compared with Cc1ccc(C(=O)Nc2ccc(CN3CCCC3)c(C(F)(F)F)c2)cc1-c1ccc2cnncc2c1, O=C(OCCN1CCN(c2cccc(C(F)(F)F)c2)CC1)c1sccc1Nc1ccnc2cc(Cl)ccc12 is lower in melting point: 168 to 170 °C for the first, 80 °C for the second.

First: O=C(NC1=NCCS1)c1c(C(F)(F)F)nc(-c2ccccc2)c(-c2ccccc2)c1O
Second: Cc1onc(-c2ccccc2)c1-c1ccc(S(=O)(=O)NC(=O)CC(C)(C)SN=O)cc1
The melting point of the first is higher: 280 °C for the first, 138 to 140 °C for the second.

First: CCOC(=O)C1=CC(C)C2=c3c1cccc3=C1N=NC=C12 (configuration not stated)
Second: CCCOc1ccccc1-c1nc2nc(SC)ncc2c(=O)[nH]1
The melting point of the first is lower: 107 to 109 °C for the first, 179 to 181 °C for the second.

First: COc1cc(C(C)N(O)C(N)=O)ccc1OCCc1ccccc1 (configuration not stated)
Second: O=C1NCCSC1Cc1ccc(OCc2ccccc2)cc1 (configuration not stated)
The melting point of the first is lower: 112 to 115 °C for the first, 126 to 128 °C for the second.

First: C=CCC1(C(=O)NCCC)c2ccccc2CCc2ccccc21
Second: O=C1CC(O)CC(/C=C/c2ccccc2-c2ccccc2)O1 (configuration not stated)
The melting point of the first is lower: 76 to 79 °C for the first, 89 to 91 °C for the second.

Compared with CCc1ncnc(Sc2ccc(Cl)cc2)c1F, OC(Cn1cncn1)(c1ccc(Cl)cn1)c1ccc(Cl)cc1Cl (configuration not stated) is higher in melting point: 44.1 to 45.5 °C for the first, 149 to 150 °C for the second.

First: NCC1CC(CCC(=O)O)=NO1 (configuration not stated)
Second: CCOc1nn(Cc2ccc(OCc3cn4c(OCC)cccc4n3)cc2)cc1CCC(=O)O
The melting point of the first is higher: 201 °C for the first, 197 to 198 °C for the second.

First: C=CCn1c(CC)nc2nc3cc(Cl)ccc3nc21
Second: CC(C)n1nc(-c2cnc(N)nc2-c2cccc(Cl)c2)ccc1=O
The melting point of the first is lower: 117 to 121 °C for the first, 236 to 237 °C for the second.

First: CC(C)(C)OC(=O)c1cc[nH]c1
Second: CC(C)(C)C(=O)Nc1ccc(Cl)cn1
The melting point of the first is higher: 82 to 84 °C for the first, 51.4 to 53.4 °C for the second.

First: CS(=O)(=O)c1cccc(Cn2ccc(OCc3ccc(F)cc3F)c(Cl)c2=O)c1
Second: Cn1c(C(F)(F)F)cc(=O)n(-c2cc(Oc3ccccc3O)c(Cl)cc2F)c1=O
The melting point of the first is higher: 155 to 157 °C for the first, 55.4 °C for the second.

CN(C)CCNCc1ccc(-c2cc3ncnc(Nc4ccc5[nH]ccc5c4)c3s2)cc1 and CN(C)CCNC(=O)Cc1ccc(NC(=O)CCc2nc(-c3ccc4ccccc4c3)no2)cc1 cannot be ordered by melting point: 170 to 183 °C for the first, 173 to 174 °C for the second.

Compared with CNC(=O)N1CCc2[nH]cnc2C1c1ccccc1 (configuration not stated), CC(C)(C)C(O)C(CS(=O)(=O)c1ccccc1)n1cncn1 (configuration not stated) is lower in melting point: 180 °C for the first, 145 °C for the second.

First: COc1ccc2c(CCBr)c[nH]c2c1
Second: CCCOc1ccc2c(c1)C(c1ccc(OC)cc1OCC(=O)O)CC2c1ccc2c(c1)OCO2 (configuration not stated)
The melting point of the first is lower: 98 to 101 °C for the first, 177 to 178 °C for the second.

Compared with NS(=O)(=O)c1ccc(-c2cccc(-c3nc(-c4ccc(C(F)(F)F)cc4F)cc(C(F)(F)F)n3)c2)s1, CSc1ccc2c(=O)cc(C(=O)N[C@H]3CCN(C(=O)c4cc(C(F)(F)F)cc(C(F)(F)F)c4)[C@H](Cc4ccc(Cl)cc4)C3)oc2c1 is lower in melting point: 192 °C for the first, 137 to 140 °C for the second.

First: Cc1n[nH]c(C)c1-c1cncc(OC2SCC(O)C(O)C2O)c1 (configuration not stated)
Second: CC(C)(C)OC(=O)N1C[C@@H]2CC1CN2c1cncc(Br)c1
The melting point of the first is higher: 227 °C for the first, 149 °C for the second.

First: CCCCCCCCCCCCc1nnc(C(C(=O)Nc2c(C(C)C)cccc2C(C)C)c2ccccc2)o1 (configuration not stated)
Second: CCCCOc1cccc(C[C@H](NC(=O)c2coc(NS(C)(=O)=O)n2)[C@H](O)CNCc2cccc(CC)c2)c1
The melting point of the first is higher: 82 to 84 °C for the first, 78 to 80 °C for the second.

First: CCC1(CCCCN2CC=C(c3ccc(Cl)cc3)CC2)C(=O)Nc2ccccc21 (configuration not stated)
Second: O=C(O)COc1ccc(CN2C(=O)C3(COc4cc5c(cc43)OCCO5)c3ccccc32)cc1 (configuration not stated)
The melting point of the first is lower: 142 to 145 °C for the first, 223 to 224 °C for the second.

Compared with O=C(O)c1ccccc1OCCN1CCC(c2cn(CCOc3ccc4c(c3)OCO4)c3ccccc23)CC1, CCOC(=O)Cc1ccc(-c2nc(COc3ccc(COc4nn(-c5ccccc5)cc4/C=C/c4nc(N5CCCCC5)sc4C)cc3OC)c(C)o2)cc1 is higher in melting point: 123 to 125 °C for the first, 131 to 132 °C for the second.

Compared with Cc1cc2c(c(C)c1C)C(=O)C(C)(C)O2, COc1cc2nc(-c3cc(C)c(OCC(N)=O)c(C)c3)[nH]c(=O)c2cc1OC is higher in melting point: 77 to 78 °C for the first, 354 to 356 °C for the second.

First: CC(C)(C)OC(=O)NCCCN(CCCCOC(=O)NCNC(=O)CCCCCCNC(=O)OCc1ccccc1)C(=O)OC(C)(C)C
Second: COC(=O)[C@H](Cc1ccccc1)NC(=O)CCC(=O)[C@H](Cc1ccccc1)NC(=O)c1ccccc1
The melting point of the first is higher: 115 °C for the first, 106 to 109 °C for the second.

Compared with CN1CCN(c2ncc(-c3cc(Cl)cc(Cl)c3Cl)c(N)n2)CC1, Cc1cc(NC(=O)CN2CCN(c3ncccc3C#N)CC2)ccc1F is lower in melting point: 162 to 164 °C for the first, 111 to 113 °C for the second.

First: COC(OC)C1(C)CN=C(c2cc3cccc(N(C)S(=O)(=O)c4cccs4)c3[nH]2)S1 (configuration not stated)
Second: COc1cc(C(=O)c2nc(Br)c3ccccn23)ccc1[N+](=O)[O-]
The melting point of the first is lower: 153 to 154 °C for the first, 189 °C for the second.

Compared with Cn1ncnc1COc1nn2c(-c3cccc(F)c3)nncc2c1-c1ccccc1, O=c1ccoc(C(OC2CCCCO2)c2ccccc2)c1OCc1ccccc1 (configuration not stated) is lower in melting point: 198 °C for the first, 115 to 116 °C for the second.

Compared with COc1cc2c(Nc3cccc(Cl)c3F)ncnc2cc1OC1CCN(C(=O)[C@@H](C)O)CC1, COc1nc(C)nc(NC(=O)NS(=O)(=O)c2cccnc2OC2CCCC2)n1 is higher in melting point: 107 to 111 °C for the first, 170 to 172 °C for the second.

Compared with CNC(=O)N(O)Cc1ccc(Br)cc1, CC(C)(O)C(=O)Nc1ccc(S(=O)(=O)c2ccccc2)cc1F is lower in melting point: 165 to 167 °C for the first, 156 °C for the second.

First: CCOc1sc(C(=O)N2CCCC2)c2c1-c1oncc1C(C)(C)C2
Second: COCC1CCCN(c2ccnc3sc(C(N)=O)c(N)c23)C1 (configuration not stated)
The melting point of the first is lower: 123 to 126 °C for the first, 229 to 230 °C for the second.

Compared with Cc1nc2cc(C34CC5CC(CC(C5)C3)C4)cc(-c3cccc(C=C4SC(=S)NC4=O)c3)c2o1, CC1CCC(C(C)C)C(OC(=O)C2(CC(N)=O)C(=O)N(Cc3ccc(Br)cc3F)C(=O)c3cccn32)C1 (configuration not stated) is lower in melting point: 310 °C for the first, 122 to 123 °C for the second.

CCOP(=O)(OCC)ON=C1C=CC(=C(C#N)c2ccccc2C)S1 showed a melting point of 90 to 91 °C.

— a melting point compilation (Tetko et al.; mined from patent text by program, amines drawn as free bases though some values may be those of a salt)
